Test results: PubChem BioAssay AID1117322
Active and inactive are the calls of the source. How the calls were made is not given here.

tested on: RKO cells viability, CellTiter-Glo ATP luminescence; experiment: RKO cell viability reduction, dose response, CellTiter-Glo luminescence (AID 1117322)

| SMILES | IC50 |
| --- | --- |
| CCCCCCCCCCCCCC[N+](C)(C)C | 0.147 µM |
| CC(=O)[O][Hg][c]1ccccc1 | 1.2 µM |
| O=C(O)C1(C(=O)O)CCC1.[NH2-].[NH2-].[Pt+2] | > 20 µM (inactive) |
| O=C1[O][Bi][O]c2ccccc21 | > 20 µM (inactive) |
| CC(C)n1c(/C=C/[C@@H](O)C[C@@H](O)CC(=O)O)c(-c2ccc(F)cc2)c2ccccc21 | 19.2 µM (inactive) |
| OCCN1CCN(CC/C=C2/c3ccccc3Sc3ccc(C(F)(F)F)cc32)CC1 | 0.318 µM |
| O=Cc1ccc(O)c(O)c1O | 6.23 µM (inactive) |
